Literature values, collected in patent publication US20090220618A1, “PHARMACEUTICAL FORMULATIONS COMPRISING POLYANIONIC MATERIALS AND SOURCE OF HYDROGEN PEROXIDE” (priority 2008, published 2009).

Assays:
[1] = tested on: sensitive tissues of the eye
[2] = at 25° C.

Compound | concentration causing apoptosis [1] [%] | concentration causing growth arrest [1] [%] | concentrations causing necrosis [1] | pKa [2]
benzalkonium chloride [BAK] | 0.01 | 0.00001 | 0.05-0.1% | –
CC(C)(CO)NCC(O)CS(=O)(=O)O (stereo not drawn) [AMP SO] | – | – | – | 9.0
O=S(=O)(O)CCCCNC(CO)(CO)CO [TABS, N-tris(hydroxymethyl)methyl-4-aminobutanesulfonic acid] | – | – | – | 8.9
O=S(=O)(O)CC(O)CN(CCO)CCO (stereo not drawn) [DIPSO] | – | – | – | 7.52
